# Active and inactive are the calls of the source.
# Tests used:
# [1] = molecular target: Melanocortin receptor 4 (Homo sapiens, UniProt P32245); assay: MC4R antagonist potency on cAMP, dose response, cell-based, TR-FRET, biased antagonists (AID 602298); format: functional;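 also: antagonist potency against agonist-stimulated cAMP production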
# [2] = nonselective inhibitors of cellular cAMP signaling, dose response, counter-screen for MC4R biased antagonist project, cell-based, TR-FRET cAMP detection (AID 602305); format: functional;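 also: U2OS cells stimulated with forskolin near its EC80 as the cAMP inducer; potency is for inhibition of forskolin-stimulated cAMP signaling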
# [3] = molecular target: Dual specificity protein kinase CLK4 (Homo sapiens, UniProt Q9HAZ1); format: functional
# Sequence of Dual specificity protein kinase CLK4 (Q9HAZ1 whole entry): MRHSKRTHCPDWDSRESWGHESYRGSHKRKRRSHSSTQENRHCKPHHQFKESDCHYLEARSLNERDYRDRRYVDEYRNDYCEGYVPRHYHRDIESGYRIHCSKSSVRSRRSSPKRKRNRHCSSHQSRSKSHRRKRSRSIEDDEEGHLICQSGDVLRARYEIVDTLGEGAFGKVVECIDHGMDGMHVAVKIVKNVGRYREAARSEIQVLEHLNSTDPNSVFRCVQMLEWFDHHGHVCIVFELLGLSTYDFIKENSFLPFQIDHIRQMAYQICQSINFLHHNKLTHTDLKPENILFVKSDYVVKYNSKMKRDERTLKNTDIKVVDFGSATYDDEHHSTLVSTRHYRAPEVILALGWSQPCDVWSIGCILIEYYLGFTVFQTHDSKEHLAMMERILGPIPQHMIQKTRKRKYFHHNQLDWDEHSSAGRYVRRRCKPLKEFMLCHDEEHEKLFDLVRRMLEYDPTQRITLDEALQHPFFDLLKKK
# [4] = molecular target: cAMP-dependent protein kinase catalytic subunit alpha (Homo sapiens, UniProt P17612); format: functional
# [5] = molecular target: Mitogen-activated protein kinase kinase kinase kinase 4 (Homo sapiens, UniProt O95819); format: functional
# [6] = molecular target: MAP kinase-interacting serine/threonine-protein kinase 2 (Homo sapiens, UniProt Q9HBH9); format: functional
# Sequence of MAP kinase-interacting serine/threonine-protein kinase 2 (Q9HBH9 whole entry): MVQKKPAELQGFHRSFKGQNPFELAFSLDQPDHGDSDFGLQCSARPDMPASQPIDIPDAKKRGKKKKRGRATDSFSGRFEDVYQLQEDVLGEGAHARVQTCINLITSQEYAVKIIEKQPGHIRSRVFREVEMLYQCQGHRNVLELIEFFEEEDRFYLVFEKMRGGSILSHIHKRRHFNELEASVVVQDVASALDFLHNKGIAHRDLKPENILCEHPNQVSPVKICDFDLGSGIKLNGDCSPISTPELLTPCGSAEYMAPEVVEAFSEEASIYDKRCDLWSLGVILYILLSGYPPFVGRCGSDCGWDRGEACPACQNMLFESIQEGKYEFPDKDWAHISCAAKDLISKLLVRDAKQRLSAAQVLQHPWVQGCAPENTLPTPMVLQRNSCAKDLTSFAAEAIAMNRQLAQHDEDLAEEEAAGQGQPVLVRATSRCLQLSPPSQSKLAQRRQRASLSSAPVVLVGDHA
# [7] = molecular target: Homeodomain-interacting protein kinase 2 (Homo sapiens, UniProt Q9H2X6); format: functional;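 also: measured within a kinome-wide kinase profiling panel, HIPK2 being one panel member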
# [8] = molecular target: Serine/threonine-protein kinase pim-1 (Homo sapiens, UniProt P11309); format: functional
# Sequence of Serine/threonine-protein kinase pim-1 (P11309 whole entry): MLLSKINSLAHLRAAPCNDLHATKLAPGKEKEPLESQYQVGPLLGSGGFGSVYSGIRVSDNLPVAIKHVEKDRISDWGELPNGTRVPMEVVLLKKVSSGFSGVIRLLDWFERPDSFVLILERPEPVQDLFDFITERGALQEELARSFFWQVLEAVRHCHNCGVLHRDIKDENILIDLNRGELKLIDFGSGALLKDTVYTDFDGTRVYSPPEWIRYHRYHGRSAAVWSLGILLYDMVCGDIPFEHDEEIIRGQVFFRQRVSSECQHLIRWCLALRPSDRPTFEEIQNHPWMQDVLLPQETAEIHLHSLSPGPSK
# [9] = molecular target: Glycogen synthase kinase-3 beta (Homo sapiens, UniProt P49841); format: functional;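 also: value comes from a broad kinome profiling panel, with GSK3B as the panel member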
# Sequence of Glycogen synthase kinase-3 beta (P49841 whole entry): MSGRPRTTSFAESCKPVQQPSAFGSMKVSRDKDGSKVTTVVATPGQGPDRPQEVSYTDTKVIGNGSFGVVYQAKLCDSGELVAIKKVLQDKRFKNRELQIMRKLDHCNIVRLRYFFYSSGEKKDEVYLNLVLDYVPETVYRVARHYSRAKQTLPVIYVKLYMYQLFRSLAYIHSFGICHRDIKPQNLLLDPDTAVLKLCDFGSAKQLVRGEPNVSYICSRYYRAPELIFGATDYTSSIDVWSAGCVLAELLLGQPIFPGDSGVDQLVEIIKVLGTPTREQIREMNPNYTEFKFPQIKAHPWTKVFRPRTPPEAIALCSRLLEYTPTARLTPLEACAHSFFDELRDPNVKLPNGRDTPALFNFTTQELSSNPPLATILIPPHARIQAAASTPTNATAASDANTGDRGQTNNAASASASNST
# [10] = molecular target: Cyclin-dependent kinase 2 (Homo sapiens, UniProt P24941); format: functional;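 also: CDK2 measured as one member of a broad kinome profiling panel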
# [11] = molecular target: Interleukin-1 receptor-associated kinase 4 (Homo sapiens, UniProt Q9NWZ3); format: functional
# Sequence of Interleukin-1 receptor-associated kinase 4 (Q9NWZ3 whole entry): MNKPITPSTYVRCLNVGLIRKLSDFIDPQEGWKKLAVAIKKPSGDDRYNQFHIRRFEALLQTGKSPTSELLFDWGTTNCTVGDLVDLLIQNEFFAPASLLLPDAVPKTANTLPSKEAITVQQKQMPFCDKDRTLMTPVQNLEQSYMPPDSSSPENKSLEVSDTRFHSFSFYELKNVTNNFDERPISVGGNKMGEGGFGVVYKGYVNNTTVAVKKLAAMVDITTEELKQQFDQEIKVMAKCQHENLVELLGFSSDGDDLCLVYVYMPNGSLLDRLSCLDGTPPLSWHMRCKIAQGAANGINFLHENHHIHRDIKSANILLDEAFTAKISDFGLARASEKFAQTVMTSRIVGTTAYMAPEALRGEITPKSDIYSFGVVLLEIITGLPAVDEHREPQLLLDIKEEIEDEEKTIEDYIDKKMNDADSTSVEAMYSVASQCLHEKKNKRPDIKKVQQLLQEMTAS
# [12] = molecular target: Cell division cycle 7-related protein kinase (Homo sapiens, UniProt O00311); format: functional;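 also: value obtained from a kinome-wide kinase panel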
# [13] = molecular target: Protein disulfide-isomerase (Homo sapiens, UniProt P07237); assay: PDI inhibitors, insulin aggregation turbidity, dose response, biochemical, absorbance, cherry-picked samples (AID 602350); format: functional
# Sequence of Protein disulfide-isomerase (P07237 whole entry): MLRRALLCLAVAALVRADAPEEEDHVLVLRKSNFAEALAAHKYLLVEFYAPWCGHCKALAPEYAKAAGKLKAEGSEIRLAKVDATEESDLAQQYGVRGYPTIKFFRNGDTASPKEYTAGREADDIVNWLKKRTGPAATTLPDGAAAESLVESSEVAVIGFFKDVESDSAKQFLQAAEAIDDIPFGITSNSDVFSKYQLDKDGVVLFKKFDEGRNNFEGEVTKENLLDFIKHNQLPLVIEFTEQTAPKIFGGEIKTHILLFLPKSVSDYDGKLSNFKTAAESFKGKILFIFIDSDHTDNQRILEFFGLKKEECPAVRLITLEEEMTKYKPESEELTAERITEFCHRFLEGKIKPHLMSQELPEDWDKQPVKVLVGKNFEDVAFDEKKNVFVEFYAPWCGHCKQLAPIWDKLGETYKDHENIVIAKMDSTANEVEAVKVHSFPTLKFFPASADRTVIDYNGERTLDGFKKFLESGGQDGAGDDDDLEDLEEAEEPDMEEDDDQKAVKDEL
# [14] = molecular target: Melanin-concentrating hormone receptor 1 (Homo sapiens, UniProt Q99705); assay: Late-stage fluorescence-based counterscreen for antagonists of the G-protein coupled receptor 7 (GPR7): cell-based dose response assay to identify antagonists of the melanin-concentrating hormone receptor 1 (MCHR1). [Related pubchem assays (depositor defined):AID1861, AID1880, AID1952, AID2148, AID2251, AID2257, AID485339]; format: functional;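 also: stimulated with 30 nM MCH peptide agonist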
# Sequence of Melanin-concentrating hormone receptor 1 (Q99705 whole entry): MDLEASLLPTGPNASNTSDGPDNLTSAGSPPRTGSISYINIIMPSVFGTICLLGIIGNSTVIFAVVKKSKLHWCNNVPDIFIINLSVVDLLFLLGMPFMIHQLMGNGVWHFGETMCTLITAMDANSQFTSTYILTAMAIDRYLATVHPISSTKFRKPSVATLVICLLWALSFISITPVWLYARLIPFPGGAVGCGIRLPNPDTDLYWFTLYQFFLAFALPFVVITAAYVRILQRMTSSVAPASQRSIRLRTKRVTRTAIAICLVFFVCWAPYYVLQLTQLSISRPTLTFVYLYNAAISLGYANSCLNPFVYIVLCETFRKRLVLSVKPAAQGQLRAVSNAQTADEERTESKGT
# [15] = Late-stage results from the probe development effort to identify antagonists of the G-protein coupled receptor 7 (GPR7): luminescence-based cell-based dose response counterscreen assay to determine cytotoxicity of antagonist compounds Set 2.; format: functional
# [16] = Late-stage luminescence-based cell-based dose response assay to identify antagonists of the G-protein coupled receptor 7 (GPR7): Cytotoxicity assay. [Related pubchem assays (depositor defined):AID1861, AID1880, AID1952, AID2148, AID2251, AID2257, AID485339]; format: functional
# [17] = molecular target: Activated CDC42 kinase 1 (Homo sapiens, UniProt Q07912); assay: Navigating the Kinome. Panel member name: ACK1; format: functional
# [18] = molecular target: Cyclin-dependent kinase 5 (Homo sapiens, UniProt Q00535); format: functional;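 also: CDK5 measured as one member of a kinase profiling panel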
# [19] = molecular target: Dual specificity tyrosine-phosphorylation-regulated kinase 1A (Homo sapiens, UniProt Q13627); format: functional;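 also: measured against DYRK1A as one member of a broad kinome profiling panel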
# [20] = molecular target: Cyclin-dependent kinase 19 (Homo sapiens, UniProt Q9BWU1); assay: Navigating the Kinome. Panel member name: CDC2L6; format: functional
# [21] = molecular target: Dual specificity tyrosine-phosphorylation-regulated kinase 1B (Homo sapiens, UniProt Q9Y463); assay: Navigating the Kinome. Panel member name: DYRK1B; format: functional
# Sequence of Dual specificity tyrosine-phosphorylation-regulated kinase 1B (Q9Y463 whole entry): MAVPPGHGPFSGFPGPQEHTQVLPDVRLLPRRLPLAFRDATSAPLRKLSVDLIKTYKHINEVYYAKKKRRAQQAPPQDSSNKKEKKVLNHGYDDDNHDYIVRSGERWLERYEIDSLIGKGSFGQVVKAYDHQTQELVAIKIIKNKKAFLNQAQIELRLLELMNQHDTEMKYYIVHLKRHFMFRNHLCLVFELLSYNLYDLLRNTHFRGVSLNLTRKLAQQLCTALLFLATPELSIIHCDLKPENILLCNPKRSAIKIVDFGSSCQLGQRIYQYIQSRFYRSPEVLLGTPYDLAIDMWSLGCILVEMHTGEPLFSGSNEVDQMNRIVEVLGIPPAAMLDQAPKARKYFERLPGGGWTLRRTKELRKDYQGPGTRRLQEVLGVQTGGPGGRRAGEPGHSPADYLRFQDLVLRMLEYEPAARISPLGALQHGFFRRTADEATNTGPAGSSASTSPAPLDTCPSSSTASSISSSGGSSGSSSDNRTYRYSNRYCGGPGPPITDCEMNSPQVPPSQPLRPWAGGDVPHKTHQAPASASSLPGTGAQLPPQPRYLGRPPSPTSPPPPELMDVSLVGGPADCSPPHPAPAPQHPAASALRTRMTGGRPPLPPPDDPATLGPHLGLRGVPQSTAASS
# [22] = molecular target: Cyclin-dependent kinase 9 (Homo sapiens, UniProt P50750); format: functional;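 also: value from the CDK9 entry of a kinome-spanning kinase panel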
# [23] = molecular target: Macrophage colony-stimulating factor 1 receptor (Homo sapiens, UniProt P07333); format: functional;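 also: value comes from the Navigating the Kinome screening panel, CSF1R member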
# [24] = molecular target: Death-associated protein kinase 3 (Homo sapiens, UniProt O43293); format: functional;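 also: measured as one member of a kinome-wide profiling panel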
# [25] = molecular target: Cyclin-dependent kinase 8 (Homo sapiens, UniProt P49336); assay: Navigating the Kinome. Panel member name: CDK8; format: functional
# [26] = molecular target: Protein kinase C theta type (Homo sapiens, UniProt Q04759); assay: Navigating the Kinome. Panel member name: PRKCQ; format: functional
# [27] = molecular target: Proto-oncogene tyrosine-protein kinase receptor Ret (Homo sapiens, UniProt P07949); format: functional;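 also: measured within a kinome-wide profiling panel, RET as the panel member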
# [28] = molecular target: Focal adhesion kinase 1 (Homo sapiens, UniProt Q05397); format: functional;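 also: measured as one member of a kinome panel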
# [29] = molecular target: Aurora kinase A (Homo sapiens, UniProt O14965); format: functional;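 also: value from the Navigating the Kinome kinase panel profiling, panel entry STK6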
# [30] = molecular target: Glycogen synthase kinase-3 alpha (Homo sapiens, UniProt P49840); format: functional;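 also: GSK3A result taken from a broad kinome-wide kinase panel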
# Sequence of Glycogen synthase kinase-3 alpha (P49840 whole entry): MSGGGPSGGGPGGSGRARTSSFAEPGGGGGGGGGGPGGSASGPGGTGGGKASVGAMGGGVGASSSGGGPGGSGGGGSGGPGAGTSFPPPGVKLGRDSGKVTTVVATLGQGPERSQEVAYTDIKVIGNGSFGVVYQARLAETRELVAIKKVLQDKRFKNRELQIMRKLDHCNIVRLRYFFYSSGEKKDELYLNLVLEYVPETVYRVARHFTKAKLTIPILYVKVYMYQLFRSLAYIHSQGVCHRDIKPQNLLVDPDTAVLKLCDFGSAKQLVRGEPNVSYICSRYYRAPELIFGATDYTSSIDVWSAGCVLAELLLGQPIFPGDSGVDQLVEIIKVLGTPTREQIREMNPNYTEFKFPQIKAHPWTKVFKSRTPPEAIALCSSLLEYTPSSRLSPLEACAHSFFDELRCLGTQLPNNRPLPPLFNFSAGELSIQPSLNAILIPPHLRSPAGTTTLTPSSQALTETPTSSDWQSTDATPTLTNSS
# [31] = molecular target: Vascular endothelial growth factor receptor 2 (Homo sapiens, UniProt P35968); format: functional
# [32] = THP-1 cell cytotoxicity, dose response, cytotoxicity control, set 3 (AID 504852); format: functional; conditions: Mycobacterium tuberculosis
# [33] = A Cell Based Secondary Assay to Explore Cytotoxicity in THP-1 Cells of Compounds that Modulate Mycobacterium tuberculosis in Media Containing Glycerol versus Media without Glycerol (2).; format: functional
# [34] = molecular target: Heat shock protein HSP 90-alpha (Homo sapiens, UniProt P07900); format: functional, organism-based
# [35] = THP-1 cell cytotoxicity, cytotoxicity control, set 4 (AID 504911); format: functional; conditions: Mycobacterium tuberculosis
# [36] = test system: BJ; assay: cytotoxicity toward BJ-TERT-LT-ST fibroblasts, dose response, cell-based, RAS-independent, luminescence (AID 1935); format: functional; conditions: Homo sapiens;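 also: BJ fibroblasts immortalized with TERT plus LT and ST oncogenes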
# [37] = test system: Streptococcus; assay: Group A Streptococcus viability loss, dose response, counter-screen for streptokinase expression inhibitor project, luminescence, BacTiterGlo (AID 1915); format: functional, organism-based;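 also: potency for reduction of bacterial viability or growth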
# [38] = cytotoxicity toward DRD oncogenic fibroblasts, dose response, cell-based, non-viral oncogenic, luminescence (AID 1934); format: functional; conditions: Homo sapiens
# [39] = test system: Streptococcus sp. 'group A'; assay: growth inhibition of control SK(-) GAS strain, dose response, counter-screen for streptokinase expression inhibitor project, luminescence, kanamycin, BacTiterGlo, confirmation (AID 1900); format: functional, organism-based
# [40] = microbe, parasite or virus in culture; format: functional; conditions: Mycobacterium tuberculosis
# [41] = A Cell Based Secondary Assay to Explore Cytotoxicity in HepG2 Cells of Compounds that Modulate Mycobacterium tuberculosis in Media Containing Glycerol versus Media without Glycerol (2).; format: functional
# [42] = molecular target: T1, Streptokinase A (Streptococcus pyogenes serotype M1, UniProt P10520); assay: S. pyogenes streptokinase expression inhibitors, potency, dose response, plasminogen activation absorbance, OD405 (AID 1914); format: functional, Streptococcus pyogenes M1 GAS;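 also: secreted streptokinase activity via plasminogen activation per viability signal from cell pellet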
# T1 sequence (P10520 whole entry): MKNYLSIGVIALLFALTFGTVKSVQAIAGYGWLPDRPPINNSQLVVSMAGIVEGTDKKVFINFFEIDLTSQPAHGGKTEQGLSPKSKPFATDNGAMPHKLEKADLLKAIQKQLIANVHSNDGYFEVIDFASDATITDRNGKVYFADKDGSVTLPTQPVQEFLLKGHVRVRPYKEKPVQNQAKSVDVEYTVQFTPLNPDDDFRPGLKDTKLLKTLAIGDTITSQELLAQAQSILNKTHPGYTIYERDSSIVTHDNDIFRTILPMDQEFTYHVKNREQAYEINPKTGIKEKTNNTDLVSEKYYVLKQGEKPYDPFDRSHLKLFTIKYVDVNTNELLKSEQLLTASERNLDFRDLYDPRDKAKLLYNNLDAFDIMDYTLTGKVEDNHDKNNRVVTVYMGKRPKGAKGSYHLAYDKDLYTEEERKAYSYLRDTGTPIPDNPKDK
# [43] = Vero cell cytotoxicity, cytotoxicity control for M. tuberculosis inhibitor project, purified and synthesized samples, set 3 (AID 504684); format: functional
# [44] = molecular target: T2, Heat shock factor protein 1 (Mus musculus, UniProt P38532); assay: HSF1 potentiators in luciferase reporter cells, confirmation, cell-based, NIH3T3, luminescence, dose retest (AID 435004); format: functional;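 also: stress induced by proteasome inhibitor MG132 added 30 min after compound; luciferase reporter driven by HSF1 response element in NIH3T3 cells; actives raise luminescence as potentiators of the MG132 stress response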
# T2 sequence (P38532 whole entry): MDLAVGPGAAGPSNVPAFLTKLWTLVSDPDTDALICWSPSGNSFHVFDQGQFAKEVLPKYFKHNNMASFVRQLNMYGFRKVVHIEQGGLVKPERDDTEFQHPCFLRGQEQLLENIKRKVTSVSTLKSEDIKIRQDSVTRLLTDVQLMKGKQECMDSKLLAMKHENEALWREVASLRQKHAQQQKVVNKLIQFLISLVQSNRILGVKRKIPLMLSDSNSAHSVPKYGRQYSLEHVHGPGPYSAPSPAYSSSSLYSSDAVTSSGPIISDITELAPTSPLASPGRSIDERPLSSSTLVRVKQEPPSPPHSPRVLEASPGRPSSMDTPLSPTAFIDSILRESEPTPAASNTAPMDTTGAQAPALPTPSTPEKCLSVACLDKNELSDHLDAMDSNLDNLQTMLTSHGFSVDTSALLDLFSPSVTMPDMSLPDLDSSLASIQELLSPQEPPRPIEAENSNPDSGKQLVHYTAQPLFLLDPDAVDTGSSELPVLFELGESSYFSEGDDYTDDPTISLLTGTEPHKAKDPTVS
# [45] = test system: BJ; assay: cytotoxicity toward BJ-TERT fibroblasts, dose response, cell-based, RAS-independent, luminescence (AID 1933); format: functional; conditions: Homo sapiens
# [46] = test system: INS1; assay: beta cell apoptosis inhibitors, cytokine rescue, dose response, luminescence, retest (AID 449756); format: functional, cell-based; conditions: Rattus norvegicus;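 also: cell death triggered by IL-1 beta plus TNF-alpha plus IFN-gamma mixture; protective hits raise ATP signal compared with cytokine alone wells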
# [47] = test system: BJ; assay: cells; format: functional, cell-based; conditions: Homo sapiens
# [48] = molecular target: DNA dC->dU-editing enzyme APOBEC-3A (Homo sapiens, UniProt P31941); assay: SAR analysis of small molecule inhibitors of APOBEC3A DNA Deaminase via a fluorescence-based single-stranded DNA deaminase assay - Set 2.; format: functional; conditions: read-out: IC50_Mean
# [49] = molecular target: DNA dC->dU-editing enzyme APOBEC-3G (Homo sapiens, UniProt Q9HC16); assay: SAR analysis of small molecule inhibitors of APOBEC3G DNA Deaminase via a fluorescence-based single-stranded DNA deaminase assay - Set 2.; format: functional; conditions: read-out: IC50_Mean
# Sequence of DNA dC->dU-editing enzyme APOBEC-3G (Q9HC16 whole entry): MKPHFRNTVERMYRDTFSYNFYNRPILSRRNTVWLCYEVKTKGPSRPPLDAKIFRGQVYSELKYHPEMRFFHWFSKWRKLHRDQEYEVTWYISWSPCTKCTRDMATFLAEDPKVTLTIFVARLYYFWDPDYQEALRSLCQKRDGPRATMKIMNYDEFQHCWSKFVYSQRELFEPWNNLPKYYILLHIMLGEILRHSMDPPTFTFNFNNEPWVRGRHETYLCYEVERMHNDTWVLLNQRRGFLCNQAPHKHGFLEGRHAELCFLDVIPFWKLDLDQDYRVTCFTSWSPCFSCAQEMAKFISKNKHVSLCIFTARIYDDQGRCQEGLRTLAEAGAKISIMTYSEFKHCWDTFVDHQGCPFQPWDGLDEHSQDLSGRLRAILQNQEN
# [50] = molecular target: Sphingosine 1-phosphate receptor 3 (Homo sapiens, UniProt Q99500); assay: Late-stage fluorescence-based dose-response cell-based counterscreen assay to identify agonists of the Sphingosine 1-Phosphate Receptor 4 (S1P4): Sphingosine 1-Phosphate Receptor 3 (S1P3) agonist assay Set 2.; format: functional
# [51] = molecular target: Sphingosine 1-phosphate receptor 2 (Homo sapiens, UniProt O95136); assay: S1P2 receptor agonists, human, late-stage follow-up, counter-screen for S1P4 agonist project, cell-based, fluorescence, set 2 (AID 504873); format: functional
# Sequence of Sphingosine 1-phosphate receptor 2 (O95136 whole entry): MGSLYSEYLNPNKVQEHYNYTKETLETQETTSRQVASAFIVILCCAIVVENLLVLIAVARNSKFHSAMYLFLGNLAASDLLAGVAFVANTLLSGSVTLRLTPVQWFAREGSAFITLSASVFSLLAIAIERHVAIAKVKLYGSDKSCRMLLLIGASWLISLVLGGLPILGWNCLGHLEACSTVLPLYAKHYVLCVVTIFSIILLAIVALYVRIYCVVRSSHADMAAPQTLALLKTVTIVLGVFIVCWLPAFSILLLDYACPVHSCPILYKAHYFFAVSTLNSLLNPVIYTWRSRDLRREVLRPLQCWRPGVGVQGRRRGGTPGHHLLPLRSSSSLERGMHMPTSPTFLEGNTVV
# [52] = molecular target: Sphingosine 1-phosphate receptor 5 (Homo sapiens, UniProt Q9H228); assay: S1P5 receptor agonists, human, late-stage follow-up, counter-screen for S1P4 agonist project, cell-based, fluorescence, set 2 (AID 504867); format: functional
# [53] = molecular target: Sphingosine 1-phosphate receptor 1 (Homo sapiens, UniProt P21453); assay: Late-stage fluorescence-based dose-response cell-based counterscreen assay to identify agonists of the Sphingosine 1-Phosphate Receptor 4 (S1P4): Sphingosine 1-Phosphate Receptor 1 (S1P1) agonist assay Set 2.; format: functional
smiles,measurement,setting,value
O=C(Nc1ccccc1)OC1CCC2CC1CCC2OC(=O)Nc1ccccc1 (stereo unspecified),IC50,[1],7.46 µM (active)
same,IC50,[2],> 64.6 µM (inactive)
O=C(O)c1ccccc1Nc1ccnc(NCc2cccc(O)c2)n1,Ki,[3],5.01 µM (active)
same,Ki,[4],> 7.94 µM (inactive)
same,Ki,[5],0.631 µM (active)
same,Ki,[6],> 10 µM (inactive)
same,Ki,[7],> 3.16 µM (inactive)
same,Ki,[8],2 µM (active)
same,Ki,[9],1.26 µM (active)
same,Ki,[10],> 7.94 µM (inactive)
same,Ki,[11],> 10 µM (inactive)
same,Ki,[12],0.0316 µM (active)
O=c1c(O[C@H]2O[C@@H](CO)[C@H](O)[C@@H](O)[C@@H]2O)c(-c2ccc(O)cc2)oc2cc(O)cc(O)c12,AC50,[13],0.0155 µM (active)
COc1ccc(Oc2c(Cl)cnn(-c3cc(C)cc(C)c3)c2=O)cc1,IC50,[14],3.9 µM (active)
same,CC50,[15],> 20 µM (inactive)
same,CC50,[16],> 20 µM (inactive)
O=C1CN2C(=NN1)COc1ccccc12,Ki,[17],25.1 µM (active)
same,Ki,[18],5.01 µM (active)
same,Ki,[19],63.1 µM (active)
same,Ki,[20],> 100 µM (inactive)
same,Ki,[21],31.6 µM (active)
same,Ki,[3],3.98 µM (active)
same,Ki,[4],39.8 µM (active)
same,Ki,[22],> 63.1 µM (inactive)
same,Ki,[23],> 100 µM (inactive)
same,Ki,[24],10 µM (active)
same,Ki,[9],31.6 µM (active)
same,Ki,[25],3.98 µM (active)
same,Ki,[26],3.98 µM (active)
same,Ki,[27],50.1 µM (active)
same,Ki,[28],100 µM (active)
same,Ki,[29],> 63.1 µM (inactive)
same,Ki,[30],50.1 µM (active)
same,Ki,[31],> 100 µM (inactive)
Cc1cccc(/C=C/C(=O)c2ccc([N+](=O)[O-])o2)c1,CC50,[32],> 100 µM (active)
same,CC50,[33],12.2 µM (active)
same,AC50,[34],2.39 µM (active)
same,CC50,[35],> 100 µM (active)
same,EC50,[36],> 150 µM (inconclusive)
same,EC50,[37],14.4 µM (active)
same,EC50,[38],2.23 µM (active)
same,EC50,[39],3.96 µM (active)
same,CC50,[40],18.8 µM (active)
same,CC50,[41],8.39 µM (active)
same,EC50,[42],9.69 µM (active)
same,CC50,[43],12.4 µM (active)
same,EC50,[44],3.43 µM (inconclusive)
same,EC50,[45],> 150 µM (not active)
same,AC50,[46],3.29 µM (active)
same,EC50,[47],> 150 µM (inconclusive)
O=C(O)c1cc2nccc(-c3cccs3)n2n1,IC50,[48],> 99 µM (inactive)
same,IC50,[49],> 99 µM (inactive)
CC/N=C1/S/C(=C/c2cc(C)n(-c3ccc(Cl)cc3F)c2C)C(=O)N1CC,EC50,[50],> 25 µM (inactive)
same,EC50,[51],> 25 µM (inactive)
same,EC50,[52],0.0367 µM (active)
same,EC50,[53],0.274 µM (active)

# Reference: ChEMBL document CHEMBL1201862, “PubChem BioAssay data set” (2004)
